Measured values taken from the supplement of paper PMC10307832.

Tests used:
Test in all cases: relative viability (nuclei count vs DMSO), 5 days (fraction); higher = more cells survive
DM3189 = compound: C1CN(CCN1)C2=CC=C(C=C2)C3=CN4C(=C(C=N4)C5=CC=NC6=CC=CC=C56)N=C3 [DM3189]
How it was run: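 On vehicle-anchored 1536-well plates, lung cancer cell lines held overnight at 37 °C were pinned with five library-drug doses (not always all listed) spaced by √10. With no medium change over 5 days, they were then fixed, permeabilised and Hoechst-stained in one step and imaged at 4×. MetaXpress counted nuclei, and viability is the median across plates of treated-well over vehicle-well nuclei. Acceptance needed control CV below 25% and at least one doubling.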

DM3189 + Trametinib = compound: C1CN(CCN1)C2=CC=C(C=C2)C3=CN4C(=C(C=N4)C5=CC=NC6=CC=CC=C56)N=C3 [DM3189] + CC(=O)Nc1cccc(-n2c(=O)n(C3CC3)c(=O)c3c(Nc4ccc(I)cc4F)n(C)c(=O)c(C)c32)c1 [Trametinib] (partner 0.02 µM)
How it was run: (§1)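 Lung cancer cell lines were pin-tool dosed in 1536-well plates on the day after seeding, with either a lone drug or a fixed anchor-drug dose plus five library-drug doses (not always all listed) in √10 steps. Nuclei were counted on 4× images after 5 days. Relative viability is the ratio of treated-well to vehicle-well nuclei counts, with each value a median of duplicate plates.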

DM3189 + Palbociclib = compound: C1CN(CCN1)C2=CC=C(C=C2)C3=CN4C(=C(C=N4)C5=CC=NC6=CC=CC=C56)N=C3 [DM3189] + CC(=O)c1c(C)c2cnc(Nc3ccc(N4CCNCC4)cn3)nc2n(C2CCCC2)c1=O [Palbociclib] (partner 0.5 µM)
How it was run: as §1

DM3189 + OSI-027 = compound: C1CN(CCN1)C2=CC=C(C=C2)C3=CN4C(=C(C=N4)C5=CC=NC6=CC=CC=C56)N=C3 [DM3189] + COc1cccc2cc(-c3nc([C@H]4CC[C@H](C(=O)O)CC4)n4ncnc(N)c34)[nH]c12 [OSI-027] (partner 0.5 µM)
How it was run: as §1

DM3189 + Tozasertib = compound: C1CN(CCN1)C2=CC=C(C=C2)C3=CN4C(=C(C=N4)C5=CC=NC6=CC=CC=C56)N=C3 [DM3189] + Cc1cc(Nc2cc(N3CCN(C)CC3)nc(Sc3ccc(NC(=O)C4CC4)cc3)n2)n[nH]1 [Tozasertib] (partner 0.1 µM)
How it was run: as §1

DM3189 + AZD7762 = compound: C1CN(CCN1)C2=CC=C(C=C2)C3=CN4C(=C(C=N4)C5=CC=NC6=CC=CC=C56)N=C3 [DM3189] + NC(=O)Nc1cc(-c2cccc(F)c2)sc1C(=O)N[C@H]1CCCNC1 [AZD7762] (partner 0.2 µM)
How it was run: as §1

DM3189 + Pemetrexed = compound: C1CN(CCN1)C2=CC=C(C=C2)C3=CN4C(=C(C=N4)C5=CC=NC6=CC=CC=C56)N=C3 [DM3189] + Nc1nc2[nH]cc(CCc3ccc(C(=O)N[C@@H](CCC(=O)O)C(=O)O)cc3)c2c(=O)[nH]1 [Pemetrexed] (partner 0.2 µM)
How it was run: as §1

DM3189 + Decitabine = compound: C1CN(CCN1)C2=CC=C(C=C2)C3=CN4C(=C(C=N4)C5=CC=NC6=CC=CC=C56)N=C3 [DM3189] + Nc1ncn([C@H]2C[C@H](O)[C@@H](CO)O2)c(=O)n1 [Decitabine] (partner 2 µM)
How it was run: as §1

DM3189 + Vorinostat = compound: C1CN(CCN1)C2=CC=C(C=C2)C3=CN4C(=C(C=N4)C5=CC=NC6=CC=CC=C56)N=C3 [DM3189] + O=C(CCCCCCC(=O)Nc1ccccc1)NO [Vorinostat] (partner 1 µM)
How it was run: as §1

DM3189 + Olaparib = compound: C1CN(CCN1)C2=CC=C(C=C2)C3=CN4C(=C(C=N4)C5=CC=NC6=CC=CC=C56)N=C3 [DM3189] + O=C(c1cc(Cc2n[nH]c(=O)c3ccccc23)ccc1F)N1CCN(C(=O)C2CC2)CC1 [Olaparib] (partner 8 µM)
How it was run: as §1

DM3189 + Luminespib = compound: C1CN(CCN1)C2=CC=C(C=C2)C3=CN4C(=C(C=N4)C5=CC=NC6=CC=CC=C56)N=C3 [DM3189] + CCNC(=O)c1noc(-c2cc(C(C)C)c(O)cc2O)c1-c1ccc(CN2CCOCC2)cc1 [Luminespib] (partner 0.01 µM)
How it was run: as §1

DM3189 + Foretinib = compound: C1CN(CCN1)C2=CC=C(C=C2)C3=CN4C(=C(C=N4)C5=CC=NC6=CC=CC=C56)N=C3 [DM3189] + COc1cc2c(Oc3ccc(NC(=O)C4(C(=O)Nc5ccc(F)cc5)CC4)cc3F)ccnc2cc1OCCCN1CCOCC1 [Foretinib] (partner 0.25 µM)
How it was run: as §1

DM3189 + Dasatinib = compound: C1CN(CCN1)C2=CC=C(C=C2)C3=CN4C(=C(C=N4)C5=CC=NC6=CC=CC=C56)N=C3 [DM3189] + Cc1nc(Nc2ncc(C(=O)Nc3c(C)cccc3Cl)s2)cc(N2CCN(CCO)CC2)n1 [Dasatinib] (partner 0.075 µM)
How it was run: as §1

DM3189 + Phenformin = compound: C1CN(CCN1)C2=CC=C(C=C2)C3=CN4C(=C(C=N4)C5=CC=NC6=CC=CC=C56)N=C3 [DM3189] + N=C(N)NC(=N)NCCc1ccccc1 [Phenformin] (partner 250 µM)
How it was run: as §1

Cell Line: NCI-H1648
- relative viability (DM3189; 0.08 µM): 0.798
- relative viability (DM3189; 0.253 µM): 0.947
- relative viability (DM3189; 0.8 µM): 0.962
- relative viability (DM3189; 2.53 µM): 0.661
- relative viability (DM3189 + Trametinib; first compound 0.08 µM): 0.434
- relative viability (DM3189 + Trametinib; first compound 0.253 µM): 0.51
- relative viability (DM3189 + Trametinib; first compound 0.8 µM): 0.61
- relative viability (DM3189 + Trametinib; first compound 2.53 µM): 0.671
- relative viability (DM3189 + Palbociclib; first compound 0.08 µM): 0.274
- relative viability (DM3189 + Palbociclib; first compound 0.253 µM): 0.226
- relative viability (DM3189 + Palbociclib; first compound 0.8 µM): 0.271
- relative viability (DM3189 + Palbociclib; first compound 2.53 µM): 0.364
- relative viability (DM3189 + OSI-027; first compound 0.253 µM): 0.272
- relative viability (DM3189 + OSI-027; first compound 0.8 µM): 0.227
- relative viability (DM3189 + OSI-027; first compound 2.53 µM): 0.28
- relative viability (DM3189 + Tozasertib; first compound 0.253 µM): 0.565
- relative viability (DM3189 + Tozasertib; first compound 0.8 µM): 0.39
- relative viability (DM3189 + Tozasertib; first compound 2.53 µM): 0.464
- relative viability (DM3189 + AZD7762; first compound 0.08 µM): 0.681
- relative viability (DM3189 + AZD7762; first compound 0.253 µM): 0.592
- relative viability (DM3189 + AZD7762; first compound 0.8 µM): 0.562
- relative viability (DM3189 + AZD7762; first compound 2.53 µM): 0.576
- relative viability (DM3189 + Pemetrexed; first compound 0.08 µM): 0.893
- relative viability (DM3189 + Pemetrexed; first compound 0.253 µM): 0.615
- relative viability (DM3189 + Pemetrexed; first compound 0.8 µM): 0.596
- relative viability (DM3189 + Pemetrexed; first compound 2.53 µM): 0.577
- relative viability (DM3189 + Decitabine; first compound 0.08 µM): 0.631
- relative viability (DM3189 + Decitabine; first compound 0.253 µM): 0.53
- relative viability (DM3189 + Decitabine; first compound 0.8 µM): 0.462
- relative viability (DM3189 + Decitabine; first compound 2.53 µM): 0.438
- relative viability (DM3189 + Vorinostat; first compound 0.08 µM): 0.453
- relative viability (DM3189 + Vorinostat; first compound 0.253 µM): 0.637
- relative viability (DM3189 + Vorinostat; first compound 0.8 µM): 0.421
- relative viability (DM3189 + Vorinostat; first compound 2.53 µM): 0.391
- relative viability (DM3189 + Olaparib; first compound 0.08 µM): 1.16
- relative viability (DM3189 + Olaparib; first compound 0.253 µM): 0.881
- relative viability (DM3189 + Olaparib; first compound 0.8 µM): 0.749
- relative viability (DM3189 + Olaparib; first compound 2.53 µM): 0.862

Cell Line: NCI-H2342
- relative viability (DM3189; 0.08 µM): 0.988
- relative viability (DM3189; 0.253 µM): 0.99
- relative viability (DM3189; 0.8 µM): 0.948
- relative viability (DM3189; 2.53 µM): 0.97
- relative viability (DM3189 + Trametinib; first compound 0.08 µM): 0.805
- relative viability (DM3189 + Trametinib; first compound 0.253 µM): 0.843
- relative viability (DM3189 + Trametinib; first compound 0.8 µM): 0.844
- relative viability (DM3189 + Trametinib; first compound 2.53 µM): 0.74
- relative viability (DM3189 + Palbociclib; first compound 0.08 µM): 0.509
- relative viability (DM3189 + Palbociclib; first compound 0.253 µM): 0.489
- relative viability (DM3189 + Palbociclib; first compound 0.8 µM): 0.532
- relative viability (DM3189 + Palbociclib; first compound 2.53 µM): 0.512
- relative viability (DM3189 + Luminespib; first compound 0.08 µM): 0.916
- relative viability (DM3189 + Luminespib; first compound 0.253 µM): 0.66
- relative viability (DM3189 + Luminespib; first compound 0.8 µM): 0.845
- relative viability (DM3189 + Luminespib; first compound 2.53 µM): 0.702
- relative viability (DM3189 + Foretinib; first compound 0.08 µM): 1.08
- relative viability (DM3189 + Foretinib; first compound 0.253 µM): 0.912
- relative viability (DM3189 + Foretinib; first compound 0.8 µM): 1.08
- relative viability (DM3189 + Foretinib; first compound 2.53 µM): 0.965
- relative viability (DM3189 + OSI-027; first compound 0.08 µM): 0.658
- relative viability (DM3189 + OSI-027; first compound 0.253 µM): 0.626
- relative viability (DM3189 + OSI-027; first compound 0.8 µM): 0.622
- relative viability (DM3189 + OSI-027; first compound 2.53 µM): 0.552
- relative viability (DM3189 + Tozasertib; first compound 0.08 µM): 0.599
- relative viability (DM3189 + Tozasertib; first compound 0.253 µM): 0.526
- relative viability (DM3189 + Tozasertib; first compound 0.8 µM): 0.541
- relative viability (DM3189 + Tozasertib; first compound 2.53 µM): 0.483
- relative viability (DM3189 + Dasatinib; first compound 0.08 µM): 0.291
- relative viability (DM3189 + Dasatinib; first compound 0.253 µM): 0.3
- relative viability (DM3189 + Dasatinib; first compound 0.8 µM): 0.299
- relative viability (DM3189 + Dasatinib; first compound 2.53 µM): 0.332
- relative viability (DM3189 + Phenformin; first compound 0.08 µM): 0.625
- relative viability (DM3189 + Phenformin; first compound 0.253 µM): 0.594
- relative viability (DM3189 + Phenformin; first compound 0.8 µM): 0.595
- relative viability (DM3189 + Phenformin; first compound 2.53 µM): 0.498
- relative viability (DM3189 + AZD7762; first compound 0.08 µM): 0.44
- relative viability (DM3189 + AZD7762; first compound 0.253 µM): 0.533
- relative viability (DM3189 + AZD7762; first compound 0.8 µM): 0.54
- relative viability (DM3189 + AZD7762; first compound 2.53 µM): 0.478
- relative viability (DM3189 + Pemetrexed; first compound 0.08 µM): 0.954
- relative viability (DM3189 + Pemetrexed; first compound 0.253 µM): 0.745
- relative viability (DM3189 + Pemetrexed; first compound 0.8 µM): 0.802
- relative viability (DM3189 + Pemetrexed; first compound 2.53 µM): 0.847
- relative viability (DM3189 + Decitabine; first compound 0.08 µM): 0.747
- relative viability (DM3189 + Decitabine; first compound 0.253 µM): 0.679
- relative viability (DM3189 + Decitabine; first compound 0.8 µM): 0.718
- relative viability (DM3189 + Decitabine; first compound 2.53 µM): 0.688
- relative viability (DM3189 + Vorinostat; first compound 0.08 µM): 0.702
- relative viability (DM3189 + Vorinostat; first compound 0.253 µM): 0.692
- relative viability (DM3189 + Vorinostat; first compound 0.8 µM): 0.843
- relative viability (DM3189 + Vorinostat; first compound 2.53 µM): 0.668
- relative viability (DM3189 + Olaparib; first compound 0.08 µM): 0.417
- relative viability (DM3189 + Olaparib; first compound 0.253 µM): 0.473
- relative viability (DM3189 + Olaparib; first compound 0.8 µM): 0.477
- relative viability (DM3189 + Olaparib; first compound 2.53 µM): 0.468
